Results published in patent US20120071458A1, “METHODS FOR TREATING OBESITY” (priority 2006, published 2012).
Read-outs that look alike come from different tables or passages of the source.

Columns and labels:
[1] = AEGR-733/ezetimibe combination therapy patient study: percentage change in body mass; format: in vivo, human
Excerpt: The primary parameter of efficacy in this study is the percentage change in body mass after 12 weeks of therapy.
Approximately 85 subjects were randomized into one of three treatment arms with equal probability. […] Enrolled patients had initial BMIs of both greater than and less than 30 kg/m^2. Patients were not instructed to implement lifestyle changes to induce weight loss. Patients were placed on a heart healthy low fat diet 4-5 weeks prior to start of dosing.
In treatment arm 1, subjects received two capsules: AEGR-733 (5 mg) plus an ezetimibe placebo. In effect, treatment arm 1 represents monotherapy with AEGR-733. In treatment arm 2, subjects received two capsules: an AEGR-733 placebo plus ezetimibe (10 mg). In effect treatment arm 2 represents monotherapy with ezetimibe. In treatment arm 3, subjects received two capsules: an AEGR-733 (5 mg) capsule plus an ezetimibe (10 mg) capsule. Treatment arm 3 patients, in effect, received a combination therapy.
After 4 weeks of treatment, subjects in arms 1 and 3 received a step-up in concentration of AEGR-733 from 5 mg to 7.5 mg for 4 weeks. Thereafter, subjects in arms 1 and 3 received a second step-up in concentration in AEGR-733 from 7.5 mg to 10 mg for 4 more additional weeks of treatment. Subjects in arm 2 continued to receive AEGR-733 matching placebo for the entire 12 weeks of treatment. Subjects randomized to ezetimibe 10 mg in arms 2 and 3 and ezetimibe placebo in arm 1 remained on these doses for the entire 12-week treatment period.
Throughout the study, changes in body weight of the subjects are measured as part of vital signs collection.
FIG. 3 depicts the same data only for those patients with a BMI of greater than 30 kg/m^2. FIG. 4 depicts the same data only for those patients with a BMI of less than or equal to 30 kg/m^2.

[2] = cited from earlier work
[3] = entire cohort, after 12 weeks of daily administration (FIG. 1), AEGR-733 5 then 7.5 then 10 mg, ezetimibe 10 mg
[4] = patients with initial BMI greater than 30 kg/m^2 (FIG. 3), after 12 weeks
[5] = patients with initial BMI less than 30 kg/m^2 (FIG. 4), after 12 weeks

In the case of O=C1[C@H](CC[C@H](O)c2ccc(F)cc2)[C@@H](c2ccc(O)cc2)N1c1ccc(F)cc1 [ezetimibe], the “percent change in body mass” value [1, 3] is reported as −0.2%, the “percent change in body mass” value [1, 4] is reported as −1.0% and the “percent change in body mass” value [1, 5] is reported as “+0.4%”.

In the case of O=C(NC1CCN(CCCCC2(C(=O)NCC(F)(F)F)c3ccccc3-c3ccccc32)CC1)c1ccccc1-c1ccc(C(F)(F)F)cc1 [AEGR-733, N-(2,2,2-Trifluorethyl)-9-[4-[4-[[[4′-(trifluoromethyl)[1,1′biphenyl]-2-Y1]carbonyl]amino]-1-piperidinyl]butyl]9H-fluorene-9-carboxamide], the “percent change in body mass” value [1, 3] is reported as −1.0%, the “percent change in body mass” value [1, 4] is reported as −0.4% and the “percent change in body mass” value [1, 5] is reported as −1.4%. The adverse events ([2]; 25 mg/day) was “found to cause gastrointestinal disorders, abnormalities in liver function and/or hepatic steatosis”.

For Cc1cc(C)c2c3ccccc3n(Cc3ccc(C(C(=O)NC(CO)c4ccccc4)C4CCCC4)cc3)c2n1 [implitapide, (2S)-2-cyclopentyl-2-[4-[2,4-dimethyl-9H-pyrido[2,3-b]indol-9-yl)methyl]phenyl]-N-[(1S)-2-hydroxy-1-phenylethyl]ethanamide], the adverse events ([2]; 80 mg/day) is given as “found to cause gastrointestinal disorders, abnormalities in liver function and/or hepatic steatosis” and the adverse events ([2]; 160 mg/day) is given as “found to cause gastrointestinal disorders, abnormalities in liver function and/or hepatic steatosis”.
